Here are results for five compounds from publication PMC10394814, “Discovery and evaluation of active compounds from Xuanfei Baidu formula against COVID-19 via SARS-CoV-2 M^pro” (Chinese Medicine, 2023).

Data set [1] concerns the target T1, SARS-CoV-2 M^pro (Severe acute respiratory syndrome coronavirus 2, UniProt P0DTD1). Description: FRET screening of SARS-CoV-2 M^pro inhibitors. It is filed as biochemical. The conditions noted are these: for inhibition at 40 µM: read-out: inhibition rate; for IC50: n = 5. How it is done: FRET screening was carried out for identifying the inhibitors of SARS-CoV-2 M^pro. […] The screening system was established by employing M^pro (200 nM), substrate (20 µM), and the tested compounds with the different concentrations from 0.039 to 160 µM. The excitation and emission wavelength were set at 320 and 405 nm, separately. The data was analyzed with Graphpad prism 9.0 and all experiments were performed in triplicates.

The target of data set [2] is T1, SARS-CoV-2 M^pro. Briefly: SPR binding affinity to M^pro (Biacore T200, CM5 chip). The conditions noted are these: for kon / koff: kinetic mode; for kon: read-out: Ka (association rate constant); for koff: read-out: Kd (dissociation rate constant). As to the method: SPR assay. Biacore T200 system was used for SPR assay. M^pro was conjugated to a sensor Chip (CM5) via amino coupling reaction. The tested compounds were diluted with the running buffer (1.05 × PBS-P, 5% DMSO) to reach the working concentration of 0.977–500 µM, being injected into the channels at a flow rate of 30 µL/min. The coupling time and the dissociation time were respectively set at 60 s and 120 s or 180 s. The data were analyzed for fitting the equilibrium dissociation constant (KD).

Data set [3] concerns the target T1, SARS-CoV-2 M^pro. Description: ITC measurement of binding to M^pro. The conditions noted are these: ITC at 298 K.
The nature of a further data set: in vitro. The data set is classed as cell-based. To be noted: African green monkey. As to the method:
Vero E6 (ATCC, CRL-1586) cells (1 × 10^4 cells/well) were maintained in a 96-well plate for 12 h. All cells were cultured in complete medium composed of Dulbecco’s Modified Eagle Medium (DMEM) (Gibco, USA), 10% (v/v) serum, 100 U/mL penicillin, and 100 µg/mL streptomycin. The diluted solutions of the tested compounds (200 µL) at the concentrations of 100, 80, 60, 40, 20, 10, and 5 µM were added to wells and incubated for another 24 or 48 h, respectively. At the terminus period of incubation, 50 µL MTT (2.5 mg/mL) was added to each well and continuously incubated at 37 ℃ for 4 h. After disposal of the liquid supernatant, 150 µL DMSO was added to each well, whose absorbance was detected at 490 nm via Microplate Reader (TECAN SunriseTM, China). Cytotoxicity was calculated as follows: Cell viability (%) = (ODexperiment-ODBlank)/(ODcontrol-ODBlank) × 100%. The data were analyzed with GraphPad Prism 9.0. All experiments were performed in triplicates.

The subject of the next data set is mice. To be noted: cited from earlier work.
[4] abbreviates: kinetic mode (physcion: affinity mode).

Like-named read-outs stand apart in the source and are kept apart here.

`C[C@@H]1O[C@@H](O[C@@H]2[C@@H](O)[C@H](OCCc3ccc(O)c(O)c3)O[C@H](CO)[C@H]2OC(=O)/C=C/c2ccc(O)c(O)c2)[C@H](O)[C@H](O)[C@H]1O` [Acteoside]: at SARS-CoV-2 M^pro [1], the inhibition at 40 µM was greater than 90%. This compound also came in with a half-maximal inhibitory concentration (IC50) on SARS-CoV-2 M^pro [1] (with 0.01% Triton X-100) of 1.93 ± 0.76 µM. This compound also showed an IC50 on SARS-CoV-2 M^pro [1] (without Triton X-100) of 2.53 ± 1.02 µM. On SARS-CoV-2 M^pro [2] (setting [4]), the Kd worked out at 4.67 µM. Moreover, on SARS-CoV-2 M^pro [2], the kon amounted to 847 M⁻¹ s⁻¹ and the koff is 0.00396 s⁻¹. For the same compound, on SARS-CoV-2 M^pro [3], the “N (binding stoichiometry)” value is 0.48 and the “ΔS (entropy variation)” value was 27.3 cal/mol/deg. Besides, in the data set “in vitro”, the cytotoxic concentration (CC50) is greater than 100 µM. For the same compound, the safe dose result in the data set on mice is “up to 800 mg/kg”.
Consider `COc1c(/C=C/C(=O)c2ccc(O)cc2)ccc(O)c1O` [Licochalcone B], for which the inhibition at 40 µM at SARS-CoV-2 M^pro [1] is greater than 90%. Also, the IC50 against SARS-CoV-2 M^pro [1] (with 0.01% Triton X-100) amounted to 5.12 ± 1.53 µM. For the same compound, the IC50 against SARS-CoV-2 M^pro [1] (without Triton X-100) amounted to 4.24 ± 1.03 µM. For the same compound, the dissociation constant (Kd) on SARS-CoV-2 M^pro [2] (setting [4]) worked out at 5.64 µM. In addition, on SARS-CoV-2 M^pro [2], the kon is 2210 M⁻¹ s⁻¹ and the koff is 0.0125 s⁻¹.
On to `COc1c(/C=C/C(=O)c2ccc(O)c(CC=C(C)C)c2)ccc(O)c1O` [Licochalcone D], for which the inhibition at 40 µM on SARS-CoV-2 M^pro [1] was greater than 90%. The half-maximal inhibitory concentration (IC50) on SARS-CoV-2 M^pro [1] (with 0.01% Triton X-100) is 29.5 µM; on SARS-CoV-2 M^pro [1] (without Triton X-100) it was 5.54 µM. The compound further displayed a Kd on SARS-CoV-2 M^pro [2] (setting [4]) of 4.87 µM. On SARS-CoV-2 M^pro [2], the kon is 2810 M⁻¹ s⁻¹. In addition, the koff at SARS-CoV-2 M^pro [2] worked out at 0.0137 s⁻¹.
In the case of `CCCCC/C=C\C/C=C\CCCCCCCC(=O)O` [Linoleic acid, Linoleic Acid], the inhibition at 40 µM on SARS-CoV-2 M^pro [1] was greater than 90%. At SARS-CoV-2 M^pro [1] (with 0.01% Triton X-100), this compound yielded an IC50 of 43 ± 1.93 µM. In addition, binding at SARS-CoV-2 M^pro [2] was put at a Kd of 10.8 µM.
With `COc1cc(O)c2c(c1)C(=O)c1cc(C)cc(O)c1C2=O` [Physcion], on SARS-CoV-2 M^pro [1], the inhibition at 40 µM was greater than 90%. The 50% inhibitory concentration (IC50) at SARS-CoV-2 M^pro [1] (with 0.01% Triton X-100) is 31.6 ± 25.6 µM; against SARS-CoV-2 M^pro [1] (without Triton X-100) it was 22.1 ± 3.01 µM. At SARS-CoV-2 M^pro [2], this compound registered a dissociation constant (Kd) of 167 µM.
